This note sets out measurements from BindingDB's records for patent US10660876 (Achillion Pharmaceuticals, 2020).

SMILES strings stand for the structures. Some results are limits rather than exact numbers.

Broadly, the IC50 is the point on the concentration scale where inhibition reaches its midpoint.

Sequence of Complement factor D (P00746 whole entry): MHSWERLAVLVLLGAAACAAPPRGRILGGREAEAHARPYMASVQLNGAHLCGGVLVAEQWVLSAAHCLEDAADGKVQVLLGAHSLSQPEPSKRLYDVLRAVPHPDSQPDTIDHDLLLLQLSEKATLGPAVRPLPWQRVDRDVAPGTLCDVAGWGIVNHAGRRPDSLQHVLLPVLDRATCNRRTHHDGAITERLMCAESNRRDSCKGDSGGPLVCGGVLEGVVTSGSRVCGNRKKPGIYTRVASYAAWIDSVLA

The target in this test is Complement factor D (Homo sapiens, UniProt P00746). Briefly: Inhibition Assay. On the procedure:
Human Factor D (purified from human serum, Complement Technology, Inc.) at 80 nM final concentration is incubated with test compound at various concentrations for 5 minutes at room temperature in 50 mM Tris, 1M NaCl, pH 7.5. A synthetic substrate Z-L-Lys-SBzl and DTNB (Ellman's reagent) are added to final concentrations of 100 µM each. Absorbance at 405 nm (A405) is recorded at 30 second intervals for 30 minutes using a microplate spectrophotometer. IC50 values are calculated by nonlinear regression of complement Factor D reaction rates as a function of test compound concentration.
`CC(=O)c1cn(CC(=O)N2C[C@H](F)C[C@H]2C(=O)NCc2cccc(Cl)c2F)c2cc(N(CC(=O)N3C[C@H](F)C[C@H]3C(=O)NCc3cccc(Cl)c3F)S(C)(=O)=O)ccc12` [US10660876, Cmpd No. 1]: the IC50 entry is “in the range around 5.5 µM”. In the case of `CC(=O)c1cn(CC(=O)N2C[C@H](F)C[C@H]2C(=O)NCc2nc3ccccc3s2)c2ccc(Nc3cncnc3)cc12` [US10660876, Cmpd No. 16] it was “in the range around 5.5 µM”; in that of `CNC(=O)[C@@H]1C[C@@H](F)CN1C(=O)Cn1cc(C(C)=O)c2cc(Nc3cncnc3)ccc21` [US10660876, Cmpd No. 20], “in the range around 5.5 µM”. The value for `CC(=O)c1cn(CC(=O)N2C[C@H](F)C[C@H]2C(=O)Nc2ccccc2-n2nccc2C)c2ccc(Nc3cncnc3)cc12` [US10660876, Cmpd No. 30] was “in the range around 5.5 µM”. As for `CC(=O)c1cn(CC(=O)N2C[C@H](F)C[C@H]2C(=O)Nc2ccccc2-c2nc3ccccc3s2)c2ccc(Nc3cncnc3)cc12` [US10660876, Cmpd No. 32], the concentration for half-maximal inhibition (IC50) is greater than 10 µM.

In the case of `CC(=O)c1cn(CC(=O)N2C[C@H](F)C[C@H]2C(=O)Nc2nnc(-c3ccccc3Cl)s2)c2ccc(Nc3cncnc3)cc12` [US10660876, Cmpd No. 34], the IC50 entry was “in the range around 5.5 µM”. On to `CC(=O)c1cn(CC(=O)N2C[C@H](F)C[C@H]2C(=O)N[C@H]2CCCC[C@@H]2O)c2ccc(Nc3cncnc3)cc12` [US10660876, Cmpd No. 36], for which the IC50 entry was “in the range around 5.5 µM”. For `CC(=O)c1cn(CC(=O)N2C[C@H](F)C[C@H]2C(=O)Nc2cccc(Cl)c2-n2cncn2)c2ccc(Nc3cncnc3)cc12` [US10660876, Cmpd No. 37], the IC50 entry was “in the range around 5.5 µM”. For `CC(=O)c1cn(CC(=O)N2C[C@H](F)C[C@H]2C(=O)Nc2ccccc2N2CCOC2=O)c2ccc(Nc3cncnc3)cc12` [US10660876, Cmpd No. 40], the IC50 result is “in the range around 5.5 µM”. The value for `CC(=O)c1cn(CC(=O)N2C[C@H](F)C[C@H]2C(=O)Nc2nc(-c3c(C)nc4sccn34)cs2)c2ccc(Nc3cncnc3)cc12` [US10660876, Cmpd No. 49] was “in the range around 5.5 µM”; that for `CC(=O)c1cn(CC(=O)N2C[C@H](F)C[C@H]2C(=O)NC2CCc3c(F)ccc(F)c32)c2ccc(Nc3cncnc3)cc12` (some centres undefined) [US10660876, Cmpd No. 51] was “in the range around 5.5 µM”; that for `CC(=O)c1cn(CC(=O)N2C[C@H](F)C[C@H]2C(=O)Nc2ccc(CN)cc2)c2ccc(Nc3cncnc3)cc12` [US10660876, Cmpd No. 53] was “in the range around 5.5 µM”. The value for `COc1cc(C)cc2c1OCCC2NC(=O)[C@@H]1C[C@@H](F)CN1C(=O)Cn1cc(C(C)=O)c2cc(Nc3cncnc3)ccc21` (some centres undefined) [US10660876, Cmpd No. 54] was “in the range around 5.5 µM”. As to `CC(=O)c1cn(CC(=O)N2C[C@H](F)C[C@H]2C(=O)Nc2c[nH]nc2-c2ccc(Cl)cc2Cl)c2ccc(Nc3cncnc3)cc12` [US10660876, Cmpd No. 55], the IC50 result is “in the range around 5.5 µM”.
